Laboratory results published in patent US8722373B2, “Contaminant control in Zymomonas fermentation using virginiamycin” (E I du Pont de Nemours and Company, priority 2012, dated 2014).

Assays:
[1] = test system: Zymomonas mobilis strain ZM4; conditions: concentrations that are safe to use with yeast; Agrawan and Basappa 1996; cited from earlier work
Z. mobilis strain ZW705 = assay: Tolerance of Z. mobilis to virginiamycin: growth in clarified MD07#3 hydrolysate; assay type: cell-based, Zymomonas mobilis; conditions: 2.5 ppm and 5 ppm virginiamycin; clarified cellulosic biomass hydrolysate medium, conditions of Example 1
Method: Z. mobilis strain ZW705 (described in General Methods) inoculum was prepared by reviving 2 mL of OD-10 frozen stock in MRM3G6 medium (10 g/L BBL yeast extract, 2 g/L KH2PO4, 1 g/L MgSO4*7H2O, 60 g/L glucose, pH 5.5) at 33° C. for ˜8 hr. This culture was used to inoculate tubes containing clarified MD07#3 hydrolysate (see General Methods) supplemented with 2 g/L yeast extract and various virginiamycin preparations at a 20% (final volume) inoculation rate, producing an initial OD of ˜0.5. Stocks of the virginiamycin-containing agents Lactrol®, Lactoside V™ or Lactoside 247™ were prepared at 1000 ppm in ethanol. These agents were added to the media at 2.5 ppm, 5 ppm, 10 ppm, or 20 ppm. […] The tubes were maintained at 33° C. with shaking for 32 hours, with growth monitored by measuring OD600.

[2] = test system: Lactobacillus plantarum strain ATCC 8014; assay: Contamination control in Z. mobilis seed medium (lactic acid formation); assay type: cell-based; conditions: fermentation broth with media lacking cellulosic biomass hydrolysate
Method: (§1) Fermentation samples were taken at timed intervals and analyzed for EtOH, residual sugars, and other metabolic products such as acetic acid, lactic acid, and glycerol using either a Waters HPLC system (Alliance system, Waters Corp., Milford, Mass.) or an Agilent 1100 Series LC; conditions=0.6 mL/min of 0.01 N H2SO4, injection volume=5 μL, autosampler temperature=10° C., column temperature=55° C., run time=25 min, detection by refractive index (maintained at 40° C.). The HPLC column was purchased from BioRad (Aminex HPX-87H, BioRad Inc., Hercules, Calif.). Analytes were quantified by refractive index detection and compared to known standards.
Z. mobilis strain ZW705 (described in General Methods) inoculum was prepared by reviving 2 mL of OD-10 frozen stock in MRM3G6 medium (10 g/L BBL yeast extract, 2 g/L KH2PO4, 1 g/L MgSO4*7H2O, 60 g/L glucose, pH 5.5) at 33° C. for ˜8 hr, at which point the OD was ˜2. Lactobacillus plantarum strain ATCC 8014 inoculum was prepared by inoculating MRS medium with an individual colony and allowing growth at 33° C. for 8 hr, at which point the OD was ˜0.4.
Seed medium (10 g/L Amberex695 yeast extract, 2 g/L KH2PO4, 5 g/L MgSO4*7H2O, 10 mM sorbitol, 150 g/L glucose, pH 5.5) was prepared and sterilized by autoclaving (121° C., 30 min). […]

L. plantarum = assay: Contaminated Z. mobilis hydrolysate fermentation with Lactrol in the medium (lactic acid); assay type: cell-based, Lactobacillus plantarum; conditions: fermentation broth with media containing cellulosic biomass hydrolysate
Method: as §1
To determine the Lactrol® dose required to prevent lactic acid formation during hydrolysate fermentation, a portion of intentionally-contaminated seed culture F1067 at EFT=19.3 hr (from Example 1) was used as a seed culture to inoculate cob hydrolysate medium (FRF13; see General Methods) (adjusted to pH 5.8, +10 mM sorbitol) at 10 vol % (final volume) containing either 0 ppm (sample F1069) or 2 ppm (sample F1071) of Lactrol®, which was then fermented at 33° C. (reduced to 30° C. at EFT=21 hr) and pH 5.8 (adjusted with 4 N NaOH). […]

| Compound | effect on growth of / safety for Zymomonas [1] | growth of Zymomonas cells (OD600) compared with absence of virginiamycin (Z. mobilis strain ZW705) | concentration of virginiamycin that controls contaminating bacteria without affecting glucose utilization and ethanol production of Zymomonas cells [2] | concentration of virginiamycin that controls contaminating bacteria while maintaining typical ethanol production (L. plantarum) |
| --- | --- | --- | --- | --- |
| CC1(C)S[C@@H]2[C@H](NC(=O)Cc3ccccc3)C(=O)N2[C@H]1C(=O)O [penicillin G] | safe for use with Zymomonas | – | – | – |
| [H]/N=C(/N)N[C@H]1[C@H](O)[C@@H](O)[C@H](O[C@@H]2O[C@@H](C)[C@](O)(C=O)[C@H]2O[C@@H]2O[C@@H](CO)[C@H](O)[C@@H](O)[C@@H]2NC)[C@@H](N/C(N)=N\[H])[C@@H]1O [streptomycin] | inhibitory to growth | – | – | – |
| polymixin | inhibitory to growth | – | – | – |
| virginiamycin | – | improved growth | about 2 ppm | at least 10 ppm |
